In PubChem BioAssay AID2423 (Broad Institute, 2010):
Inconclusive results are not listed. Active and inactive are the calls of the source. The rule behind the calls is not given here.

Each compound was assayed on C. albicans CaCi-8 + fluconazole, Alamar Blue growth, 48 h (assay: resistant C. albicans growth inhibition with fluconazole, dose response, CaCi-8 strain, Alamar Blue fluorescence (AID 2423)).
With O=C1c2ccccc2NC(c2cnc3ccccc3n2)N1O (configuration not stated) the EC50 was > 16 µM (inactive).
With Cc1ccc(S(=O)(=O)/N=C2/NC(=O)/C(=C\c3cc(Br)cc(Br)c3O)S2)cc1 the EC50 was 9.68 µM.
CCCCC(=O)NC(c1ccc(Cl)cc1)c1ccc2cccnc2c1O (configuration not stated) gave an EC50 of 0.502 µM.
For CN1C(=O)/C(=C/c2cn(CC(=O)N3CCCCC3)c3ccccc23)NC1=S, the EC50 was > 15 µM (inactive).
Compound O=C(Cc1cnn(-c2ccccc2)c1)c1ccc(O)c(O)c1O has an EC50 of 8.4 µM.
COc1cccc(N=Nc2ccc(O)c3ncccc23)c1 gave an EC50 of 0.505 µM.
For O=C(Oc1c(CN2CCOCC2)cc(Cl)c2cccnc12)c1ccccc1, the EC50 was 2.65 µM.
CCC(C)n1cnc2c(c1=O)c1nc3ccccc3nc1n2Cc1ccc(OC)cc1 (configuration not stated) gave an EC50 of 0.615 µM.
CC(=O)Oc1c(-c2ccc(Br)o2)oc2ccccc2c1=O showed an EC50 of 4.2 µM.
Work on COc1ccc(Cl)cc1C(Nc1cccnc1)c1ccc2cccnc2c1O (configuration not stated) yielded an EC50 of 1.02 µM.
O=C(/C=C/c1cc(Br)ccc1O)c1ccco1 showed an EC50 of 0.458 µM.
Compound O=C(Nc1nc2ccc(SC(F)F)cc2s1)c1ccc(NS(=O)(=O)c2ccc(F)c(F)c2)cc1 has an EC50 of 1.65 µM.
O=c1[nH]c(-c2ccccn2)nc(C(F)(F)F)c1Br was tested, and the EC50 was 0.495 µM.
With Oc1ccc(Br)cc1/C=N/Nc1ccccn1 the EC50 was 2.59 µM.
Compound S=C(Nc1ccccc1)Nc1nc2ccccc2n1CCOc1ccc(Cl)cc1 has an EC50 of 0.962 µM.
With O=[N+]([O-])c1ccc2c(c1)[nH]c(=S)n2-c1ccccc1 the EC50 was 0.648 µM.
In the case of CCC(=O)NC(c1cccs1)c1cc(Cl)c2cccnc2c1O (configuration not stated), the EC50 is reported as 0.372 µM.
Compound CCN(CC)c1ccc(/C=N/NC(=O)c2ccc3nc[nH]c3c2)c(O)c1 has an EC50 of 1.16 µM.
For CC[n+]1c(/C=C/C=C/c2ccc(N(C)C)cc2)sc2ccccc21, the EC50 was under 0.12 µM.
O=C1NC(=O)/C(=C/c2ccccc2Oc2ccc(Cl)cc2)S1 was tested, and the EC50 was > 16 µM (inactive).
For Cc1ccc(-n2c(-c3ccccc3)c[n+]3c2CCC3)cc1, the EC50 was 8.58 µM.
In the case of O=[N+]([O-])c1cc(CN2CCN(c3ccccc3)CC2)c(O)c2ncccc12, the EC50 is reported as 0.335 µM.
CC(C)(C)c1ccc(C(=O)CC(=O)c2cc(Cl)ccc2O)cc1 gave an EC50 of 4.77 µM.
With Cc1nc2ccccc2cc1OCc1ccccc1 the EC50 was 1.62 µM.
Cc1ccc(NC2=CC(=O)C(=O)c3ccccc32)cc1 was tested, and the EC50 was 0.451 µM.
CC(=O)Nc1ncnc2c1c(-c1ccc(Cl)cc1)nn2C(C)(C)C showed an EC50 of 1.33 µM.
With CCOc1ccc(/C=C/C2=CC(C)(C)NC(=S)N2)cc1 the EC50 was 1.16 µM.
For Nc1[nH]c(=O)ncc1F, the EC50 was 0.711 µM.
COc1ccc(-c2n[nH]c(C)c2-c2cnn(-c3ccccc3)c2)c(O)c1 gave an EC50 of 9.76 µM.
O=C(c1ccccc1)c1ccc2nc(-c3ccc(NC(=O)c4ccccc4Br)cc3)[nH]c2c1 gave an EC50 of 0.377 µM.
Compound CCOC(=O)c1ccc(Oc2nc(NC(C)(C)C)nc(N(C)C)n2)cc1 has an EC50 of 13.3 µM.
In the case of CN(C)S(=O)(=O)c1cccc(NC(=S)N/N=C/c2cc(Br)ccc2O)c1, the EC50 is reported as 3.84 µM.
With Cc1ccc(NC(=O)NNC(=O)c2cc3ccccc3cc2O)cc1C the EC50 was > 16 µM (inactive).
Work on Cc1cc([N+](=O)[O-])c2ccccc2[n+]1[O-] yielded an EC50 of 0.195 µM.
For [O-][n+]1cccc2c(Br)cc(Br)c(O)c21, the EC50 was 0.652 µM.
In the case of COc1ccc2[nH]c3c(C)c4ccncc4c(C)c3c2c1, the EC50 is reported as 1.44 µM.
Compound O=C(N/N=C/c1cc([N+](=O)[O-])ccc1O)/C(=C\c1cccs1)NC(=O)c1ccccc1 has an EC50 of 3.59 µM.
With CCN1/C(=C/c2cccc[n+]2C)Sc2ccc(OC)cc21 the EC50 was 10.7 µM.
CN(Cc1ccccc1)S(=O)(=O)c1ccc(C(=O)Nc2nnc(C3CC3)o2)cc1 showed an EC50 of 0.291 µM.
In the case of COC(=O)c1c(C(=O)OC)c(-c2ccc(Cl)c(Cl)c2)n2c1CCC2, the EC50 is reported as 8.98 µM.
Compound O=C(O)c1cccc(CSc2nc(-c3ccccc3)cc(C(F)(F)F)n2)c1 has an EC50 of 6.82 µM.
CCSc1ccc2cc(OC)ccc2[n+]1CC showed an EC50 of 4.71 µM.
For Oc1cccc2ccc(Nc3ccccn3)nc12, the EC50 was 2.35 µM.
For COc1ccccc1NS(=O)(=O)c1cc(NC(=O)CCC(=O)c2cccs2)ccc1Cl, the EC50 was > 15 µM (inactive).
In the case of C/C(=N\NC(=O)c1cc(-c2cccnc2)nc2ccccc12)c1ccc(O)cc1O, the EC50 is reported as 1.45 µM.
In the case of C[N+]1(CC(=O)OC2CCCCCCCCCCC2)CCCC1, the EC50 is reported as 4.94 µM.
With O=[N+]([O-])c1ccc(C2[C@H]3C(c4ccccc4)=NC4(CCCC4)N23)cc1 (some centres not stated) the EC50 was > 15 µM (inactive).
O=C(NNC(=S)Nc1ccc(Cl)cc1)c1ccccc1OC(F)F was tested, and the EC50 was 2.6 µM.
O=Nc1c(O)n(Cc2cccc(C(F)(F)F)c2)c2ccccc12 showed an EC50 of 0.932 µM.
In the case of CCn1c(/C=C/c2ccc([N+](=O)[O-])o2)nc2ccccc2c1=O, the EC50 is reported as under 0.12 µM.
For COc1cc(SC)ccc1C(=O)OCC(=O)NC1CC1, the EC50 was > 15 µM (inactive).
For CCCCCCCCCCCCCCCC[N+](C)(C)C, the EC50 was > 15 µM (inactive).
In the case of Brc1ccc(/C=C/C=N/Nc2nc3ccccc3s2)cc1, the EC50 is reported as > 16 µM (inactive).
O=C(N/N=C/c1sc(N2CCOCC2)nc1-c1ccccc1)c1cccc(S(=O)(=O)N2CCCC2)c1 gave an EC50 of 2.17 µM.
Oc1ccc(O)c2c1C1c3ccccc3C2c2ccccc21 showed an EC50 of 2.05 µM.
CN(C)c1cc(N/N=C/c2ccc(Cl)cc2)nc(N(C)C)n1 showed an EC50 of 0.695 µM.
In the case of CC(C)n1c(N2CCN(C(=O)Nc3ccc(Cl)cc3)CC2)nc2ccccc21, the EC50 is reported as > 15 µM (inactive).
Work on O=C(Nc1nnc(-c2ccncc2)o1)c1ccc2ccccc2c1 yielded an EC50 of 1.44 µM.
In the case of Cc1[nH]c2ccccc2c1/C=C/c1cc[n+](C)cc1, the EC50 is reported as 7.18 µM.
With C(=N\NC1=Nc2cccc3cccc1c23)/c1ccccn1 the EC50 was > 16 µM (inactive).
For COc1cc([N+](=O)[O-])cc(/C=N/NC(=O)c2cc(-c3ccccc3)nc3ccccc23)c1O, the EC50 was 1.54 µM.
COc1cc2ccccc2cc1C(=O)NNC(=O)c1ccccc1O gave an EC50 of 8.44 µM.
For C/C(=N/NC(=O)c1ccccc1O)c1ccc(N2C(=O)C3CCCCC3C2=O)cc1 (configuration not stated), the EC50 was > 16 µM (inactive).
NC(=O)c1c(NC(=O)c2ccco2)sc2c1CCC2 showed an EC50 of 1.06 µM.
O=C(Nc1nnc(-c2ccc3c(c2)CCCC3)o1)c1ccc(Cl)cc1Cl gave an EC50 of under 0.12 µM.
For CSC(=S)NCc1cccnc1, the EC50 was > 16 µM (inactive).
With O=C(CSc1nc(-c2ccccc2)cs1)Nc1nccs1 the EC50 was > 16 µM (inactive).
Work on Cc1cccc(N=Nc2c(C)[nH]n(C(N)=S)c2=O)c1C yielded an EC50 of 0.944 µM.
NNC(=O)c1cc(-c2cccs2)nc2ccccc12 was tested, and the EC50 was > 15 µM (inactive).
In the case of CCOC(=O)c1cc2c(=O)n3ccccc3nc2n(CCOC)c1=NC(=O)c1ccncc1, the EC50 is reported as > 15 µM (inactive).
In the case of Cc1ccc([N+](=O)[O-])cc1-c1[nH]c(-c2ccc(O)c(O)c2)nc1-c1ccccc1, the EC50 is reported as > 15 µM (inactive).
Work on Oc1c(Cl)cc(Cl)c(Cl)c1Cc1c(O)c(Cl)cc(Cl)c1Cl yielded an EC50 of 1.73 µM.
With Cc1ccc(C(=O)Cn2cccn2)cc1 the EC50 was 12.7 µM.
For Cc1cccc(/C=C/C(=O)c2cc(Br)ccc(=O)c2O)c1, the EC50 was 0.987 µM.
CCCCOc1cccc(C2C(C(=O)c3ccc(C)o3)=C(O)C(=O)N2Cc2ccco2)c1 (configuration not stated) gave an EC50 of 0.394 µM.
In the case of CCCc1cc(C(=O)Nc2sc3c(c2C#N)CCC3)no1, the EC50 is reported as > 15 µM (inactive).
In the case of CCOC(=O)c1c(-c2ccccc2)oc2cc(Br)c(O)c(C=O)c12, the EC50 is reported as 1.44 µM.
Compound c1ccc(CC2CCN(c3ncnc4sccc34)CC2)cc1 has an EC50 of 1.53 µM.
O=C1C2CCN(CC2)C1Cc1ccc(OCc2ccccc2)cc1 (configuration not stated) was tested, and the EC50 was 2.19 µM.
With Cc1ccc(Sc2ncccc2C(=O)NCc2cc([N+](=O)[O-])ccc2O)c(C)c1 the EC50 was > 15 µM (inactive).
Compound CCNC(=S)NNC(=O)c1cc(-c2cccc(C)c2)nc2ccccc12 has an EC50 of 2.27 µM.
Brc1ccc(CSc2nnc(-c3cnccn3)n2Cc2ccco2)cc1 was tested, and the EC50 was 2.01 µM.
For O=C(CC(NCCN1CCOCC1)C(=O)O)Nc1cccc(Cl)c1 (configuration not stated), the EC50 was > 16 µM (inactive).
Cc1onc(-c2ccccc2)c1C(=O)NC(=S)NNC(=O)c1cccnc1 was tested, and the EC50 was > 16 µM (inactive).
With O=C(Nc1cccc(-c2cn3c(n2)SCC3)c1)c1ccc(Br)o1 the EC50 was 2.71 µM.
CCN(CC)c1ccc(/C=N/Nc2nc(C)cc(=O)[nH]2)c(O)c1 showed an EC50 of 0.5 µM.
CCOC(=O)N1CCN(Cc2cc(Cl)c3cccnc3c2O)CC1 showed an EC50 of 1.91 µM.
Compound O=C(Nc1nnc(-c2ccc3c(c2)CCCC3)o1)c1ccccc1 has an EC50 of 0.484 µM.
Cn1c(=O)cc(OCCCC(=O)Nc2cccnc2)c2ccccc21 was tested, and the EC50 was > 16 µM (inactive).
For Cc1ccc(C)c(N=Nc2ccc(O)c3ncccc23)c1, the EC50 was 0.716 µM.
COC(=O)c1ccc(COc2ccc(/C=C(\C#N)c3nc4ccccc4[nH]3)cc2OC)o1 gave an EC50 of 2.62 µM.
COc1ccc(OC)c(C2C(C(=O)c3cc4ccccc4o3)=C(O)C(=O)N2c2cc(C)on2)c1 (configuration not stated) showed an EC50 of under 0.12 µM.
CCCn1nnnc1NC(=O)c1ccc2ccccc2c1 showed an EC50 of 1.66 µM.
For CCCCNC(=O)c1cn(C)c2ccc(S(=O)(=O)N3CCCC3)cc2c1=O, the EC50 was > 15 µM (inactive).
In the case of O=C(/C=C/c1cccc(Cl)c1)c1nc2ccccc2[nH]1, the EC50 is reported as 2.58 µM.
Cc1ccc(S(=O)(=O)c2c(C)nn(C(C)(C)C)c2OC(=O)c2ccc(Br)o2)cc1 was tested, and the EC50 was > 16 µM (inactive).
COc1ccc(CCC(=O)N2CC(C)OC(C)C2)cc1 (configuration not stated) was tested, and the EC50 was > 15 µM (inactive).
For CCCCC(=O)NC(c1ccc(N(CC)CC)cc1)c1ccc2cccnc2c1O (configuration not stated), the EC50 was 0.468 µM.
With COc1cccc(C2CC(c3ccc(NS(C)(=O)=O)cc3)=NN2C(=O)c2ccccc2)c1OC (configuration not stated) the EC50 was 3.73 µM.
With CC(C)[C@H]1C(=O)O[C@H](C(C)C)C(=O)N(C)[C@@H](C(C)C)C(=O)O[C@H](C(C)C)C(=O)N(C)[C@@H](C(C)C)C(=O)O[C@H](C(C)C)C(=O)N1C the EC50 was > 15 µM (inactive).
Cc1cc(N2C(=O)C(O)=C(C(=O)c3cc4ccccc4o3)C2c2cccs2)no1 (configuration not stated) showed an EC50 of 4.08 µM.
O=S1(=O)N=C(Nc2ccc(N3CCOCC3)cc2)c2ccccc21 was tested, and the EC50 was > 16 µM (inactive).
Work on O=C(CCc1ccccc1)NNC(=S)NC(=O)c1ccccc1 yielded an EC50 of 3.13 µM.
CCc1nnc(NC(=O)CSc2nc(SC)ns2)s1 showed an EC50 of 1.49 µM.
CO/N=C/c1ccc(N2CCN(C(=O)c3ccc(C)cc3)CC2)c([N+](=O)[O-])c1 gave an EC50 of 2.1 µM.
CCCC(=O)NC(c1ccccc1)c1ccc2cccnc2c1O (configuration not stated) showed an EC50 of 0.783 µM.
Compound CCc1ccc(/C=C2\SC(=S)N(CCCC(=O)Nc3ccccc3C(=O)O)C2=O)cc1 has an EC50 of 0.304 µM.
Compound CCN1CCN(C(c2cccnc2)c2cc(Cl)c3cccnc3c2O)CC1 (configuration not stated) has an EC50 of 0.978 µM.
For N#CC1=C(N)Oc2c(ccc3cccnc23)C1c1cccnc1 (configuration not stated), the EC50 was 8.92 µM.
In the case of Cc1ccc(/C=N/NC(=O)C2=NNC(c3ccccc3)(c3ccccc3)C2)c(O)c1, the EC50 is reported as > 16 µM (inactive).
In the case of Cc1ccc(-c2nc3ccc(Cl)cc3c(=O)n2O)cc1, the EC50 is reported as 2.16 µM.
CN(C)c1ccc(-c2n(C)c3ccccc3[n+]2C)cc1 was tested, and the EC50 was 3.93 µM.
